In US8445476B2, “Carbacephem β-lactam antibiotics” (Achaogen, Inc., priority 2007, dated 2013):
In brackets after ≈: the same amount, converted by molar mass.

What was measured:
Assay type in all cases: cell-based
[1] = tested on: S. aureus ASAU1033 (MRSA, CIP, ERY, CLIN, TET, GEN resistant); assay: MIC assay, S. aureus ASAU1033; settings: Staphylococcus aureus, read-out: MIC ASAU 1033
Procedure: (§1) The in vitro MIC for bacterial isolates may be obtained in the following manner: a test compound is incorporated into a series of two-fold dilutions in cation adjusted Mueller-Hinton broth (CAMHB). Different bacterial strains diluted to provide a uniform inoculum are added to the CAMHB containing test compounds. A well without test compound is included for each strain as a growth control. […] The procedures used in these experiments are generally those standardized by the Clinical and Laboratory Standards Institute (CLSI), as set forth in the CLSI publication entitled “M7-A7. Methods for dilution antimicrobial susceptibility tests for bacteria that grow aerobically; approved standard-seventh edition.” (2006), which is incorporated by reference as if fully set forth herein. The following exemplifies such a procedure although it is to be understood that modifications of the procedure may be implemented as required.
(§2) Two-fold dilutions of the test compounds are prepared in CAMHB at 2× the concentration range to be tested if the compounds are soluble in aqueous solution. Alternately, dimethylsulfoxide (DMSO) is used to prepare two-fold dilutions at 10× the concentration range to be tested. Reference drugs such as cefotaxime, vancomycin or imipenem are used as positive controls. A few isolated colonies are retrieved from a pure culture prepared on an agar plate and suspended in PBS until the turbidity of the suspension matches a 0.5 McFarland standard which is equal to approximately 10^8 sCFU/mL. This solution is further diluted in CAMHB to 10^6CFU/mL if compounds are diluted in CAMHB and 5×10^5 CFU/mL if compounds are diluted in DMSO. The CAMHB plates containing the compound dilutions are combined in equal volumes with the higher density inoculum, or 10 μL of the DMSO dilutions are added to the lower density inoculum. When S. aureus is the organism being tested and the compound is oxacillin, a beta-lactam or a carbacephem compound of the present invention, 2% NaCl is added to the growth media. The plates are then incubated for 16-20 hours at 35° C. The plates are then observed to determine which concentration of the test compound is the MIC.

[2] = tested on: S. aureus ASAU1043 (MRSA, CIP, ERY, CLI, GEN resistant); assay: MIC assay, S. aureus ASAU1043; settings: Staphylococcus aureus, read-out: MIC ASAU 1043
Procedure: as §1, §2

[3] = tested on: S. aureus ASAU1028 (CA-MRSA, USA400); assay: MIC assay, S. aureus ASAU1028; settings: Staphylococcus aureus, read-out: MIC ASAU 1028
Procedure: as §1, §2

[4] = tested on: S. aureus ASAU1029 (CA-MRSA, USA300); assay: MIC assay, S. aureus ASAU1029; settings: Staphylococcus aureus, read-out: MIC ASAU 1029
Procedure: as §1, §2

[5] = tested on: S. aureus ASAU001 (Susceptible Organism ATCC 29213); assay: MIC assay, S. aureus ASAU001; settings: Staphylococcus aureus, ATCC29213, read-out: MIC ASAU 001
Procedure: as §1, §2

SMILES | MIC [1] | MIC [2] | MIC [3] | MIC [4] | MIC [5]
CO/N=C(\C(=O)N[C@@H]1C(=O)N2C(C(=O)O)=C(Sc3cccnc3CSCCN)CC[C@H]12)c1nsc(N)n1 [51/1, (6R,7S,Z)-7-(2-(5-amino-1,2,4-thiadiazol-3-yl)-2-(methoxyimino)acetamido)-3-(2-((2-aminoethylthio)methyl)pyridin-3-ylthio)-8-oxo-1-aza-bicyclo[4.2.0]oct-2-ene-2-carboxylic Acid] | > 8 µg/mL | > 8 µg/mL | 1 to 8 µg/mL (≈ 1.77 to 14.2 µM) | 1 to 8 µg/mL (≈ 1.77 to 14.2 µM) | ≤ 1 µg/mL
Nc1nc(/C(=N/O)C(=O)N[C@@H]2C(=O)N3C(C(=O)O)=C(Sc4cccnc4)CC[C@H]23)c(Cl)s1 [34/1, (6R,7S,Z)-7-(2-(2-amino-5-chlorothiazol-4-yl)-2-(hydroxyimino)acetamido)-8-oxo-3-(pyridin-3-ylthio)-1-aza-bicyclo[4.2.0]oct-2-ene-2-carboxylic Acid] | > 8 µg/mL | > 8 µg/mL | 1 to 8 µg/mL (≈ 2.02 to 16.2 µM) | > 8 µg/mL | ≤ 1 µg/mL
NCc1ncccc1SC1=C(C(=O)O)N2C(=O)[C@@H](NC(=O)/C(=N\O)c3nc(N)sc3Cl)[C@H]2CC1 [31/1, (6R,7S,Z)-7-(2-(2-amino-5-chlorothiazol-4-yl)-2-(hydroxyimino)acetamido)-3-(2-(aminomethyl)pyridin-3-ylthio)-8-oxo-1-aza-bicyclo[4.2.0]oct-2-ene-2-carboxylic Acid] | 1 to 8 µg/mL (≈ 1.91 to 15.3 µM) | 1 to 8 µg/mL (≈ 1.91 to 15.3 µM) | ≤ 1 µg/mL | ≤ 1 µg/mL | ≤ 1 µg/mL
CO/N=C(\C(=O)N[C@@H]1C(=O)N2C(C(=O)O)=C(Sc3nc(C)c(C)s3)CC[C@H]12)c1nc(N)sc1Cl [38/1, (6R,7S,Z)-7-(2-(2-amino-5-chlorothiazol-4-yl)-2-(methoxyimino)acetamido)-3-(4,5-dimethylthiazol-2-ylthio)-8-oxo-1-aza-bicyclo[4.2.0]oct-2-ene-2-carboxylic Acid] | 1 to 8 µg/mL (≈ 1.84 to 14.7 µM) | > 8 µg/mL | ≤ 1 µg/mL | ≤ 1 µg/mL | ≤ 1 µg/mL
NCCSCc1ncccc1SC1=C(C(=O)O)N2C(=O)[C@@H](NC(=O)/C(=N\O)c3nsc(N)n3)[C@H]2CC1 [47/1, (6R,7S,Z)-7-(2-(5-amino-1,2,4-thiadiazol-3-yl)-2-(hydroxyimino)acetamido)-3-(2-((2-aminoethylthio)methyl)pyridin-3-ylthio)-8-oxo-1-aza-bicyclo[4.2.0]oct-2-ene-2-carboxylic Acid] | 1 to 8 µg/mL (≈ 1.82 to 14.5 µM) | 1 to 8 µg/mL (≈ 1.82 to 14.5 µM) | 1 to 8 µg/mL (≈ 1.82 to 14.5 µM) | ≤ 1 µg/mL | ≤ 1 µg/mL
Nc1nc(/C(=N/O)C(=O)N[C@@H]2C(=O)N3C(C(=O)O)=C(Sc4cccnc4N)CC[C@H]23)c(Cl)s1 [28/1, (6R,7S,Z)-7-(2-(2-amino-5-chlorothiazol-4-yl)-2-(hydroxyimino)acetamido)-3-(2-aminopyridin-3-ylthio)-8-oxo-1-aza-bicyclo[4.2.0]oct-2-ene-2-carboxylic Acid] | > 8 µg/mL | > 8 µg/mL | ≤ 1 µg/mL | 1 to 8 µg/mL (≈ 1.96 to 15.7 µM) | ≤ 1 µg/mL
CO/N=C(\C(=O)N[C@@H]1C(=O)N2C(C(=O)O)=C(Sc3ccncc3)CC[C@H]12)c1nsc(N)n1 [53/1, (6R,7S,Z)-7-(2-(5-amino-1,2,4-thiadiazol-3-yl)-2-(methoxyimino)acetamido)-8-oxo-3-(pyridin-4-ylthio)-1-aza-bicyclo[4.2.0]oct-2-ene-2-carboxylic Acid] | > 8 µg/mL | > 8 µg/mL | 1 to 8 µg/mL (≈ 2.1 to 16.8 µM) | 1 to 8 µg/mL (≈ 2.1 to 16.8 µM) | ≤ 1 µg/mL
CO/N=C(\C(=O)N[C@@H]1C(=O)N2C(C(=O)O)=C(Sc3cccnc3CN)CC[C@H]12)c1nc(N)sc1Cl [43/1, (6R,7S,Z)-7-(2-(2-amino-5-chlorothiazol-4-yl)-2-(methoxyimino)acetamido)-3-(2-(aminomethyl)pyridin-3-ylthio)-8-oxo-1-aza-bicyclo[4.2.0]oct-2-ene-2-carboxylic acid] | > 8 µg/mL | > 8 µg/mL | > 8 µg/mL | > 8 µg/mL | ≤ 1 µg/mL
CO/N=C(\C(=O)N[C@@H]1C(=O)N2C(C(=O)O)=C(Sc3nnc(N)s3)CC[C@H]12)c1nsc(N)n1 [49/1, (6R,7S,Z)-7-(2-(5-amino-1,2,4-thiadiazol-3-yl)-2-(methoxyimino)acetamido)-3-(5-amino-1,3,4-thiadiazol-2-ylthio)-8-oxo-1-aza-bicyclo[4.2.0]oct-2-ene-2-carboxylic Acid] | > 8 µg/mL | > 8 µg/mL | > 8 µg/mL | 1 to 8 µg/mL (≈ 2.01 to 16.1 µM) | ≤ 1 µg/mL
CNCCSCc1ncccc1SC1=C(C(=O)O)N2C(=O)[C@@H](NC(=O)/C(=N\OC)c3nc(N)sc3Cl)[C@H]2CC1 [41/1, (6R,7S,Z)-7-(2-(2-amino-5-chlorothiazol-4-yl)-2-(methoxyimino)acetamido)-3-(2-((2-(methylamino)ethylthio)methyl)pyridin-3-ylthio)-8-oxo-1-aza-bicyclo[4.2.0]oct-2-ene-2-carboxylic Acid] | > 8 µg/mL | > 8 µg/mL | 1 to 8 µg/mL (≈ 1.63 to 13.1 µM) | – | ≤ 1 µg/mL
Nc1nc(/C(=N/O)C(=O)N[C@@H]2C(=O)N3C(C(=O)O)=C(Sc4cccnc4CSC4CCNC4)CC[C@H]23)c(Cl)s1 (stereo partly drawn) [30/1, (6R,7S,Z)-7-(2-(2-amino-5-chlorothiazol-4-yl)-2-(hydroxyimino)acetamido)-8-oxo-3-(2-((pyrrolidin-3-ylthio)methyl)pyridin-3-ylthio)-1-aza-bicyclo[4.2.0]oct-2-ene-2-carboxylic acid] | 1 to 8 µg/mL (≈ 1.64 to 13.1 µM) | 1 to 8 µg/mL (≈ 1.64 to 13.1 µM) | ≤ 1 µg/mL | ≤ 1 µg/mL | ≤ 1 µg/mL
Nc1nc(/C(=N/O)C(=O)N[C@@H]2C(=O)N3C(C(=O)O)=C(Sc4ccncc4)CC[C@H]23)ns1 [44/1, (6R,7S,Z)-7-(2-(5-amino-1,2,4-thiadiazol-3-yl)-2-(hydroxyimino)acetamido)-8-oxo-3-(pyridin-4-ylthio)-1-aza-bicyclo[4.2.0]oct-2-ene-2-carboxylic Acid] | > 8 µg/mL | > 8 µg/mL | 1 to 8 µg/mL (≈ 2.17 to 17.3 µM) | ≤ 1 µg/mL | ≤ 1 µg/mL
CNCCSCc1ncccc1SC1=C(C(=O)O)N2C(=O)[C@@H](NC(=O)/C(=N\O)c3nc(N)sc3Cl)[C@H]2CC1 [29/1, (6R,7S,Z)-7-(2-(2-amino-5-chlorothiazol-4-yl)-2-(hydroxyimino)acetamido)-3-(2-((2-(methylamino)ethylthio)methyl)pyridin-3-ylthio)-8-oxo-1-aza-bicyclo[4.2.0]oct-2-ene-2-carboxylic acid] | 1 to 8 µg/mL (≈ 1.67 to 13.4 µM) | 1 to 8 µg/mL (≈ 1.67 to 13.4 µM) | ≤ 1 µg/mL | ≤ 1 µg/mL | ≤ 1 µg/mL
CO/N=C(\C(=O)N[C@@H]1C(=O)N2C(C(=O)O)=C(Sc3ccncc3)CC[C@H]12)c1nc(N)sc1Cl [37/1, (6R,7S,Z)-7-(2-(2-amino-5-chlorothiazol-4-yl)-2-(methoxyimino)acetamido)-8-oxo-3-(pyridin-4-ylthio)-1-aza-bicyclo[4.2.0]oct-2-ene-2-carboxylic Acid] | 1 to 8 µg/mL (≈ 1.96 to 15.7 µM) | > 8 µg/mL | 1 to 8 µg/mL (≈ 1.96 to 15.7 µM) | > 8 µg/mL | ≤ 1 µg/mL
Nc1nc(/C(=N/O)C(=O)N[C@@H]2C(=O)N3C(C(=O)O)=C(Sc4nncs4)CC[C@H]23)ns1 [46/1, (6R,7S,Z)-3-(1,3,4-thiadiazol-2-ylthio)-7-(2-(5-amino-1,2,4-thiadiazol-3-yl)-2-(hydroxyimino)acetamido)-8-oxo-1-aza-bicyclo[4.2.0]oct-2-ene-2-carboxylic Acid] | > 8 µg/mL | > 8 µg/mL | 1 to 8 µg/mL (≈ 2.13 to 17.1 µM) | ≤ 1 µg/mL | ≤ 1 µg/mL
CO/N=C(\C(=O)N[C@@H]1C(=O)N2C(C(=O)O)=C(Sc3cccnc3N)CC[C@H]12)c1nc(N)sc1Cl [40/1, (6R,7S)-7-(2-(2-amino-5-chlorothiazol-4-yl)-2-(methoxyimino)acetamido)-3-(2-aminopyridin-3-ylthio)-8-oxo-1-aza-bicyclo[4.2.0]oct-2-ene-2-carboxylic acid] | > 8 µg/mL | > 8 µg/mL | 1 to 8 µg/mL (≈ 1.91 to 15.3 µM) | > 8 µg/mL | ≤ 1 µg/mL
NCCc1ncccc1SC1=C(C(=O)O)N2C(=O)[C@@H](NC(=O)/C(=N\O)c3nc(N)sc3Cl)[C@H]2CC1 [32/1, (6R,7S,Z)-7-(2-(2-amino-5-chlorothiazol-4-yl)-2-(hydroxyimino)acetamido)-3-(2-(2-aminoethyl)pyridin-3-ylthio)-8-oxo-1-aza-bicyclo[4.2.0]oct-2-ene-2-carboxylic Acid] | 1 to 8 µg/mL (≈ 1.86 to 14.9 µM) | > 8 µg/mL | – | > 8 µg/mL | ≤ 1 µg/mL
